Data as given in US12514842B2, “Use of a benzoate containing composition to treat neurodegenerative disorders” (Rush University Medical Center, priority 2019, dated 2026).

What was measured:
[1] = test system: microglial activation; assay: Microglial activation in striatum (Iba-1 DAB staining, double-label immunofluorescence, Western blot); assay type: in vivo; details: N171-82Q Tg mice, about 50 mg/kg body wt/day via gavage, two months
Experimental: (§1) Three-month old transgenic mice were treated with GTB (about 50 mg/kg body wt/day) via gavage. Control Huntington's disease mice received only 100 μl 0.5% methylcellulose as vehicle. After two months of treatment, microglial activation was monitored in striatal sections by DAB staining (FIG. 3A) and double-label immunofluorescence (FIG. 3B). The results shown in FIGS. 3A-3G represent an analysis of six mice per group.
FIG. 3D depicts the Mean Fluorescence Intensity (MFI) of iNOS in control mice (nTg), untreated N171-82Q mice and GTB treated N171-82Q mice. FIG. 3E is the western blot for Iba-1 and iNOS and FIGS. 3F and 3G are a quantitative analysis of the western blot shown in FIG. 3E.
(§2) As evident from Iba-1 immunostaining as well as Iba-1 Western blot, the inventor found microgliosis in the striatum (FIG. 3) and cortex (FIG. 4) of untreated N171-82Q Tg mice. Activated microglia also express inducible nitric oxide synthase (iNOS).

[2] = test system: Huntington transgenic (N171-82Q) mice; assay: Locomotor activities after glyceryl tribenzoate nebulization in Huntington transgenic mice; assay type: in vivo; details: nebulization about 2 and about 5 mg/kg body wt/day, six weeks
Source text: Since many features of Huntington's disease are modeled in N171-82Q transgenic mice, the effects of glyceryl tribenzoate nebulization on locomotor activities were examined in N171-82Q mice. A Buxco® Inhalation Tower All-In-One Controller was used to nebulize the glyceryl tribenzoate. A whole-body chamber was fitted with aeroneb ultrasonic nebulizers supplied with air from a Buxco® bias flow pump. Huntington transgenic (N171-82Q) mice were allowed to nebulize glyceryl tribenzoate at doses of about 2 and about 5 mg/kg body wt/day (solubilized in a volume of 100 μl saline/mouse) for 3 min. Briefly, three-month old transgenic mice were treated with different doses (about 2 and about 5 mg/kg body wt/d) of glyceryl tribenzoate solubilized in about 100 μl saline via nebulization. Control Huntington's disease mice received only 100 μl saline as vehicle. After six weeks of treatment, locomotor activities were monitored. Data are mean+SEM of three mice per group.
Velocity refers to the speed at which the mouse walks. Total distance refers to the distance covered by the mouse in a certain period of time. Moving frequency refers to how much a mouse moves around in a given time period and cumulative duration refers to total duration spent at the center.

[3] = test system: astroglial activation; assay: Astroglial activation in striatum and cortex (GFAP DAB staining); assay type: in vivo; details: N171-82Q Tg mice, about 50 mg/kg body wt/day via gavage, two months
Experimental: Three-month old transgenic (Tg) mice were treated with glyceryl tribenzoate (about 50 mg/kg body wt/day) via gavage. Control Huntington's disease mice received only 100 μl 0.5% methylcellulose as vehicle. After two months of treatment, astroglial activation was monitored in striatal (FIG. 5A) and cortical (FIG. 5B) sections by DAB staining. Further, the number of glial fibrillary acidic protein (GFAP) (+)ve cells were counted in two striatal (FIG. 5C) and cortical (FIG. 5D) sections of each of six mice per group.
Since astroglia are the major cell type in the CNS, any contribution from this cell type would be significant. Therefore, the inventor also monitored astrogliosis in the CNS of N171-82Q Tg mice.

[4] = test system: interleukin-6 (IL-6) and IL-1β; assay: Serum proinflammatory cytokines by sandwich ELISA; assay type: in vivo; details: N171-82Q mice, 50 mg/kg body wt/d via gavage, 1 month
Experimental: Three-month old Tg mice (n=3 in each group) were treated with GTB (50 mg/kg body wt/d) mixed with 100 μl 0.5% methylcellulose via gavage. Therefore, control HD mice received only 100 μl 0.5% methylcellulose as vehicle. After 1 month of treatment, levels of interleukin-6 (IL-6) and IL-1β were measured in serum by sandwich ELISA.
Results are mean+SEM of three mice per group. *p<0.05; ***p<0.001.

[5] = test system: microglial activation; assay: Microglial activation in cortex (Iba-1 DAB staining, double-label immunofluorescence, Western blot); assay type: in vivo; details: N171-82Q Tg mice, about 50 mg/kg body wt/day via gavage, two months
Experimental: as §1, with “transgenic (Tg)” for “transgenic”, “glyceryl tribenzoate” for “GTB”, “cortical” for “striatal”, “4A)” for “3A)”, “4B).” for “3B).”, “4A-4B” for “3A-3G”
FIG. 4D depicts the Mean Fluorescence Intensity (MFI) of iNOS in control mice (nTg), untreated N171-82Q mice and GTB treated N171-82Q mice. FIG. 4E is the western blot for Iba-1 and iNOS and FIGS. 4F and 4G are a quantitative analysis of the western blot shown in FIG. 4E.
as §2

[6] = test system: huntingtin (HTT) inclusion bodies; assay: Huntingtin inclusion bodies in striatum and cortex by immunohistochemistry and Western blotting; assay type: in vivo; details: N171-82Q Tg mice, about 50 mg/kg body wt/day via gavage, two months
Experimental: Deposition of huntingtin (HTT) inclusion bodies is a pathological hallmark of Huntington's disease. This pathology is based on an expansion of CAG repeats in exon 1 of the huntingtin gene on chromosome 4 that generates a mutant huntingtin protein leading to abnormal HTT aggregates.
Briefly, three-month old transgenic mice were treated with GTB (about 50 mg/kg body wt/day) via gavage. Control Huntington's disease mice received only 100 μl 0.5% methylcellulose as vehicle. After two months of treatment, huntingtin inclusion bodies (HTT) were monitored in brain sections (striatal—FIG. 2A, cortical—FIG. 2B) by immunohistochemistry. Further, HTT positive (“(+)ve”) cells were counted in two sections (striatal—FIG. 2C, cortical—FIG. 2D) of each of six mice per group.
FIG. 2A and 2B show the results from immunohistochemistry, which indicate that administration of GTB reduces the number of HTT inclusion bodies in striatum and cortex. FIGS. 2C and 2D show the number of HTT (+ve) cells in striatum and cortex of GTB treated and untreated mice and indicate a reduction in the number of HTT in treated mice.
This was also confirmed by Western blotting. By Western blotting, the inventor could detect 348 kDa band of aggregated HTT in the cortex that was inhibited by oral GTB treatment (FIG. 2E-2F).

[7] = test system: BDNF and NT-3; details: brain cells; cited from earlier work
[8] = test system: multiple sclerosis (MS) in mice; details: cited from earlier work
[9] = test system: DJ-1; details: astrocytes and neurons; cited from earlier work

| Compound | expression of iNOS in striatum [1] | microgliosis in striatum ([1]; Iba-1) | velocity ([2]; FIG. 1A) | total distance ([2]; FIG. 1B) | moving frequency ([2]; FIG. 1C) | cumulative duration ([2]; FIG. 1D) | rotorod performance ([2]; FIG. 1E) | astrogliosis in the CNS (GFAP, striatum and cortex) [3] | level of IL-1β in serum [4] | level of IL-6 in serum [4] | expression of iNOS in cortex [5] | microgliosis in cortex ([5]; Iba-1) | 348 kDa band of aggregated HTT in the cortex ([6]; Western blotting) | HTT inclusion in the cortex ([6]; immunohistochemistry) | HTT inclusion in the striatum ([6]; immunohistochemistry) | production of BDNF [7] | production of NT-3 [7] | disease process of multiple sclerosis (MS) [8] | DJ-1 protein [9] |
| --- | --- | --- | --- | --- | --- | --- | --- | --- | --- | --- | --- | --- | --- | --- | --- | --- | --- | --- | --- |
| O=C(OCC(COC(=O)c1ccccc1)OC(=O)c1ccccc1)c1ccccc1 [glyceryl tribenzoate, 2,3-dibenzoyloxypropyl benzoate] | significantly inhibited | significantly inhibited | markedly improved | markedly improved | markedly improved | markedly improved | markedly improved | reduced | significantly decreases | significantly decreases | significantly inhibited | significantly inhibited | inhibited | significant reduction | significant reduction |  |  |  |  |
| O=C([O-])c1ccccc1.[Na+] [sodium benzoate] |  |  |  |  |  |  |  |  |  |  |  |  |  |  |  | increases | increases | suppresses | up-regulates |
